Legend:
Assay type in all cases: cell-based, mouse
C2C12 cells [1] = experiment: C2C12 cell proliferation (MTT method)
Method: C2C12 cells, a mouse myoblast line, were cultured in Dulbecco's Modified Eagle's Medium (DMEM)+10% fetal bovine serum (FBS)+1% penicillin/streptomycin (P/S). To validate the effect of MIF peptide, C2C12 cells (2×10^3 cells/ml) were placed in a 12 well cell culture dish and attached for 24 hours, and MIF peptide (1000 nM) was treated for 1 day to observe cell proliferation by MTT method. The medium was replaced every 2 days, and the cells were cultured at 37° C.
To validate cell proliferation, the culture medium of the cells was removed, the cells were washed with DMEM, 500 μl of MTT reagent (0.5 mg/ml) dissolved in phosphate buffered saline (PBS) was added to each well, and the cells were left at 37° C. for 1 hour. The reaction solution was removed, and 1000 μl of DMSO was added to each well. Purple formazan crystals were completely dissolved in DMSO, and the absorbance was measured at 540 nm.

C2C12 cells [2] = experiment: Myodifferentiation, Giemsa staining, root canal formation and fusion index
Method: When C2C12 cells were 70% grown, media were replaced with myodifferentiation medium added with MSTN protein (1 ng), Ac-MIF1 (1000 nM), and Ac-MIF1 (1000 nM)+MSTN protein (1 ng) from proliferation medium, followed by culture for 3 days.
When the cells grew more than 70% for differentiation of myoblasts into myocytes, they were cultured for 3 days by replacing with a differentiation medium (DMEM+2% FBS+1% P/S). The medium was replaced once daily, and the cells were cultured at 37° C.
The cell medium was removed, and the cells were washed with PBS. After washing, a methanol:PBS reagent in a 1:1 volume ratio was treated, followed by fixation for 2 minutes. Additionally, after a methanol:PBS reagent in a 2:1 volume ratio was added, fixation was followed for additional 2 minutes. After 2 minutes, 0.04% Giemsa reagent was added, and then the cells were left for 30 minutes, washed with PBS after 30 minutes, and observed under a microscope, with 3 photographs taken for each cell (300×). In the photographs taken, the number of fused nuclei in the root canal cells was counted, the number of nuclei of total cells was counted, and the number of fused nuclei was divided by the number of nuclei of the total cells to obtain the % value.

C2C12 cells [3] = experiment: Protein expression of myodifferentiation and sarcopenia factors (Western blot, immunocytochemistry); settings: C2C12 myodifferentiation, peptide-treated vs untreated
Method: The medium of cultured C2C12 cells was removed and washed once with PBS. The washed cells were treated with 4% formaldehyde (Sigma), fixed for 15 minutes, then washed using PBS, added with 0.2% trypton X-100 (Sigma), and left for 5 minutes. After washing again using PBS, adding 1% normal goat serum, and leaving for 30 minutes, the primary antibody (MYOD, myogenin (MYOG):myosin light chain (MYL2); 1:50) was added to carry out a reaction at 4° C. for 14 hours. The antibodies were removed, washing was performed 3 times with PBS for 10 minutes, and then the cells were left with secondary antibody (Alexa Fluor 488 goat anti-Mouse & rabbit SFX kit t) for 1 hour. After 1 hour, the antibodies were removed, washing was performed with PBS for 10 minutes, the nuclei were stained with 4′,6-diamidino-2-phenylindol (DAPI), and the expression of the proteins was observed using fluorescence microscopy.
(1) The medium of cultured C2C12 cells was removed, followed by washing with PBS. After adding LIPA buffer and protease inhibitor to the washed cells, the proteins included in the supernatant were collected after centrifugation for 10 minutes at 12000 rpm. 40 μg of the extracted proteins were subjected to electrophoresis in 8 to 10% acrylamide gel and then transferred to a polyvinylidene fluoride (PVDF) membrane (Milipore). These were blocked with 3% skim milk or bovine serum albumin (BSA) at room temperature for 1 hour. Afterwards, primary antibody diluted in 1% skim milk or BSA (Pax7; 1:500, MYOD; 1:500, MYOG; 1:400, MYL2; 1:1000, MYH; 1:500, MSTN; 1:1000, β-actin; 1:1000, MuRF1; 1:400, and Atrogin; 1:1:400) was added and reacted at 4° C. for over 16 hours. After 16 hours, cells were washed three times with TBST (Tris-buffered saline with Tween 20) and reacted with secondary antibody with horseradish peroxidase (HRP) conjugated at room temperature for 1 hour. It was washed three times with TBST and developed after adding Super Signal West Pico Chemiluminescent Substrate.

C2C12 cells [4] = experiment: Scratch experiment, degree of cell recovery; settings: C2C12, 1000 nM peptide, 1 day in proliferation medium
Method: When the C2C12 cells were 100% grown, cells were scratches on the surface, treated with 1000 nM MIF1 or Ac-MIF1 peptides, and cultured for 1 day, followed by observation for a degree of cell recovery.

C2C12 cells [5] = experiment: mRNA expression of myodifferentiation and sarcopenia factors (real-time PCR); settings: C2C12 myodifferentiation, peptide-treated vs untreated
Method: After adding 1 ml of TRIzol™ reagent, the cells were crushed using a sonicator. After centrifugation of the crushed sample (12,000 rpm, 10 min, 4° C.), the supernatant was transferred to a new tube, added with 200 μl of chloroform, and left at room temperature for 10 minutes. After 10 minutes, centrifugation (12,000 rpm, 10 min, 4° C.) was performed, yielded a transparent supernatant. Next, 500 μl of isopropanol was added, the mixture was left for 10 minutes, and centrifugation was performed to obtain RNA pellets. After washing by adding 70% ethanol (distilled water treated with ethanol+diethylpyrocarbonate (hereinafter referred to as DEPC)) to the RNA pellets, complete removal and drying were followed. The dried transparent RNA was added with DEPC-treated distilled water and then stored at −80° C. Total RNA volume was measured by nanodrop, and the 18s and 28s bands were detected in 1.2% agarose gel. cDNA was synthesized with 2 μg of total RNA, random hexamer primers, and reverse transcriptase (25° C.: 10 min, 37° C.: 120 min, 85° C.: 5 min).
Real-time PCR (RT-PCR) was performed for detecting gene expression. For observation of real-time gene expression, gene expression was analyzed using the Power SYBR Green PCR Master Mix, which includes fluorescent materials of SYBR green (7500 Real-time PCR system). The PCR primer was designed with Primer 3 software (http://frodo.wi.mit.edu) according to the nucleotide sequence secured from NCBI GenBank. PCR was performed 40 times at 95° C. for 10 minutes, again at 95° C. for 33 seconds, at gene primer temperature (tm) for 33 seconds, and at 72° C. for 33 seconds. Gene expression values were analyzed through the analysis of c(t) values obtained through real-time PCR analysis (fold change 2-^ΔΔCt formula). Setting the gene expression value of the untreated cells to 1, the gene expression value of the treated cells was calculated. In the analysis of gene c(t) values, normalization was conducted with the glyceraldehyde-3-phosphate dehydrogenase (GAPDH).

Row | Substance | proliferation of cells compared to untreated cells (C2C12 cells [1]; C2C12, MSTN protein in proliferation medium, FIG. 3) | differentiation of cells compared to untreated cells (C2C12 cells [2]; C2C12, MSTN protein in differentiation medium, FIG. 3) | root canal formation compared to untreated cells (C2C12 cells [2]; C2C12, differentiation medium, 3 days) | MSTN protein expression (C2C12 cells [3]) | MYH protein expression (C2C12 cells [3]) | MYL2 protein expression (C2C12 cells [3]) | MYOD protein expression (C2C12 cells [3]) | MYOG protein expression (C2C12 cells [3]) | MuRF1 protein expression (C2C12 cells [3]) | scratch recovery degree, increase compared to untreated cells (C2C12 cells [4]) | cell proliferation, increase compared to cells without peptide treatment (C2C12 cells [1]; C2C12, peptide 1000 nM, 1 day, MTT, FIG. 4) | fusion index, increase compared to untreated cells (C2C12 cells [2]; C2C12, differentiation medium including peptide, 3 days) | Atrogin1 mRNA expression (C2C12 cells [5]) | MSTN mRNA expression (C2C12 cells [5]) | MYH mRNA expression (C2C12 cells [5])
1 | MSTN protein: myostatin protein that inhibits the proliferation and differentiation of myoblasts [reference compound] | reduced | reduced | reduced | – | – | – | – | – | – | – | – | – | – | – | –
2 | VDFEAFWDWG [MIF1] | – | – | – | increased | increased | increased | increased | increased | decreased | 22% | 11% | 4% | decreased | decreased | increased

Reference: patent US20250090626A1, “NEW PEPTIDE AND USES THEREOF” (Neo Cremar Co., Ltd., priority 2021, published 2025)
